Source: patent US8257931B2 (President and Fellows of Harvard College, priority 2005, dated 2012)
Several values for one entry are separate records, joined by “and”; a condition that tells them apart may be missing. Equal entries are not always repeated. Entries after “also recorded” stand apart in the source; their conditions may differ. Where two headings read alike, the source gives them in different places. Each block holds one molecule with its values, some of them ahead of it.

Legend:
eIF4E = eIF4E (Mus musculus, UniProt P63073); assay: FP assay competing with fluorogenic eIF4G-derived peptide (KRYDREFLLGF); assay type: binding; settings: for binding affinity / potency in FP assay compared with hit compound 1: relative to hit compound 1
Description: The values indicate the average concentration needed to inhibit 50% of cell proliferation. […] A dual luciferase reporter mRNA was translated for 90 minutes at 30° C. in RedNova reticulocyte lysate (Novagen) in the presence of increasing concentrations of the compound. […] (purple) activity was measured and normalized against an untreated control reaction. The m^7GDP and emetine were used as the positive and negative controls, respectively.
Displacement of Nα-fluorescein tagged eIF4G-derived peptide by a competing ligand causes a large decrease in fluorescence polarization. The non-tagged version of the same eIF4G-derived peptide and DMSO were used as positive and negative control, respectively.

A549 and HT29 cell lines = assay: Alamar Blue growth inhibition, statements covering both A549 and HT29; assay type: cell-based, human; settings: for GI50: Homo sapiens
Description: (§1) Adherent human solid tumor cells were plated and maintained for 3 days in the presence of increasing concentration of the compounds, and cell proliferation was measured by alamar blue assay, where 10% of commercially available solution is added to the cell medium and measure fluorescence in 96-well plates at wavelength of 530 nm excitation and 590 nm emission. The data calculations were carried out as previously described.
(§2) Compounds were further tested for cell growth inhibition in a human lung cancer cell line (A549) and conlon cancer cell line (HT29). The Alamar Blue assay, which specifically measures the inhibition of cell proliferation, was used to assess the GI50's of the compounds.

HT29 colon cancer cells = assay: HT29 cell growth, Alamar Blue assay; assay type: cell-based; settings: Homo sapiens, HT-29; Alamar Blue assay
Description: as §1
Med. Chem. Lett. 14: 2547-50, 2004. […] .
as §2

[1] = tested on: human lung cancer cell line (A549); assay: A549 cell growth inhibition, Alamar Blue assay; assay type: cell-based
Description: as §1, §2

eIF4E/eIF4G interaction = target: T1, eIF4E/eIF4G interaction (Mus musculus, UniProt P63073); assay: Fluorescence polarization assay: binding of fluorescein-labeled eIF4G peptide to eIF4E; parameters: species or system murine; settings: for IC50: triplicate, SD<±10%, read-out: IC50 (μM) (4E/4G FP)
T1 construct: made in house; host or cells: E. coli
Description: We adapted this assay to a microwell plate format and used it to screen the 16,000 compound Chembridge DiverSet E library. […] For screening and subsequent peptide binding assays measurements of fluorescence polarization were made using an LJL Analyst plate reader. For the screening assay a solution containing approximately 5 μM meIF4E, 60 nM labeled peptide, 0.05% bovine γ-globulin, and 2 mM DTT in a buffer composed of 50 mM sodium phosphate and 50 mM potassium chloride at pH 6.5 was used. […] The curve fitting for estimation of binding constants used equations derived by Roehrl et al.^22 Measurements of fluorescence polarization and anisotropy were made in black 384-well plates (Corning) using an Analyst plate reader (LJL Biosystems) Compounds were transferred to plates during the screening using a custom-built Seiko pin transfer robot at the Institute for Chemistry and Cell Biology (ICCB) at Harvard Medical School.
A fluorescence polarization (FP) assay was developed to measure binding of a peptide containing the conserved eIF4E-binding motif to eIF4E.
The assay was adapted to a microwell plate format and used to screen a number of libraries comprised of small molecule libraries for potential eIF4E/eIF4G interaction inhibitors.

[2] = tested on: cap-dependent translation; assay: In vitro translation of dual luciferase reporter in rabbit reticulocyte lysate, cap-dependent Renilla luciferase; assay type: biochemical
From the text: (§3) To determine the relative effects of the compound on cap dependent and independent translation, we utilized a bicistronic mRNA construct containing the gene for Renilla luciferase under the control of the cap and the message for firefly luciferase under the control of the cricket paralysis virus IRES (FIG. 2A). […] A dicistronic reporter construct containing the Renilla reniformis luciferase sequence after the 5′ UTR followed by the CrPV IRES and the firefly luciferase sequence was used to build a reporter construct plasmid. The reporter construct plasmid was linearized with BamHI and transcribed in vitro with an ARCA cap using the mMessage Machine T7 Ultra Kit (Ambion). In vitro translation reactions were carried out using Red Nova reticulocyte lysate (Novagen) with 2 mM magnesium acetate and […] potassium acetate, incubated at 30 degrees C. for 90 minutes. Translation of reporter genes was measured using the Dual-Glo luciferase assay (Promega) in a Wallac Victor^2 plate reader.
(§4) In addition to structurally characterizing the binding of our hit compounds, biological activities of the compounds was evaluated. […] To test this hypothesis in vitro, a translation assay in rabbit reticulocyte lysate was carried out. A dicistronic reporter construct containing a cap-dependent Renilla luciferase and a cricket paralysis virus IRES driven firefly luciferase was utilized to measure the relative affect of a compound on both translation mechanisms.
(§5) A functional cell free assay determined the relative effects of the compounds on cap- and IRES-dependent translations. This assay involved the in vitro translation of bicistronic mRNA reporter construct encoding for renilla luciferase in a cap-dependent and for firefly luciferase in a cap independent manner, the later driven by cricket paralysis virus IRES.

A549 lung cancer cells = assay: A549 proliferation, sulforhodamine B (SRB) assay; assay type: cell-based, human; settings: sulforhodamine B assay, triplicate
Description: FIG. 28 is a graph showing the results of a cell proliferation assay. A549 cells, which are human lung cancer cells, are grown in plates for five days in medium containing 5% FCS and compound. The number of cells is quantified by staining with sulforhodamine B.

IRES driven translation = assay: In vitro translation of dual luciferase reporter in rabbit reticulocyte lysate, CrPV IRES driven firefly luciferase; assay type: biochemical
From the text: as §3, §4, §5

[3] = HT29 and A549, both, read-out: GI50 in both cell lines
[4] = HT29 or A549, at least one, read-out: GI50 in at least one cell line

Chain of eIF4E (P63073 whole entry): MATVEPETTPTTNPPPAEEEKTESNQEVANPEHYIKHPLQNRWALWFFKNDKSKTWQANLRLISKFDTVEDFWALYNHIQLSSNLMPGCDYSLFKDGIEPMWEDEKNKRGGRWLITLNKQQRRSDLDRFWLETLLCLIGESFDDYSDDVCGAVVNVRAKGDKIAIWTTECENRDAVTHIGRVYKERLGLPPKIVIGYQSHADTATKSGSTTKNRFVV
T1 sequence (P63073 whole entry): as above

binding affinity / potency in FP assay compared with hit compound 1 (eIF4E): significantly less active | GI50 (A549 and HT29 cell lines; [3]): > 24 µM
Structure (SMILES): O=C(O)C(Cc1ccccc1[N+](=O)[O-])=NNc1nc(-c2ccc(N3CCOCC3)cc2)cs1 [4h, 2-{[4-(4-Morpholin-4-yl-phenyl)-thiazol-2-yl]-hydrazono}-3-(2-nitro-phenyl)-propionic acid]

GI50 (A549 and HT29 cell lines; [4]): < 10 µM
Structure (SMILES): O=C(O)C(Cc1ccccc1[N+](=O)[O-])=NNc1nc(-c2ccc3ccccc3c2)cs1 [4c, 2-[(4-Naphthalen-2-yl-thiazol-2-yl)-hydrazono]-3-(2-nitro-phenyl)-propionic acid]

binding affinity / potency in FP assay compared with hit compound 1 (eIF4E): dramatic decrease
Structure (SMILES): O=C(O)C(Cc1ccccc1[N+](=O)[O-])=NNc1nc(-c2ccccc2)cs1 [4a]
growth inhibition of both cell lines compared with hit compound 1 (A549 and HT29 cell lines; HT29 and A549): dramatic decrease

binding affinity / potency in FP assay compared with hit compound 1 (eIF4E): equipotent | GI50 (HT29 colon cancer cells): 45 µM | GI50 [1]: 24 µM | GI50 (A549 and HT29 cell lines; [3]): > 24 µM
Structure (SMILES): O=C(O)C(Cc1ccccc1[N+](=O)[O-])=NNc1nc(-c2ccc3c(c2)OCCCO3)cs1 [4e, 2-{[4-(3,4-Dihydro-2H-benzo[b][1,4]dioxepin-7-yl)-thiazol-2-yl]-hydrazono}-3-(2-nitro-phenyl)-propionic acid]

binding affinity / potency in FP assay compared with hit compound 1 (eIF4E): ~3 fold
Structure (SMILES): O=C(O)C(Cc1ccccc1[N+](=O)[O-])=NNc1nc(-c2ccc(N=Nc3ccccc3)cc2)cs1 [4j]

IC50 (eIF4E/eIF4G interaction; Table 1 of b280): > 600 µM | cap-dependent translation (Renilla luciferase) [2]: Inhibition of cap-dependent translation | GI50 (A549 lung cancer cells; Table 1): 4 µM
Structure (SMILES): O=C(O)C(Cc1ccccc1)=NNc1nc(-c2ccccc2)cs1 [4b]

binding affinity / potency in FP assay compared with hit compound 1 (eIF4E): more than 2 fold | GI50 (A549 and HT29 cell lines; [4]): < 10 µM
Structure (SMILES): O=C(O)C(Cc1ccccc1[N+](=O)[O-])=NNc1nc(-c2ccc3c(c2)OCCO3)cs1 [4d, 2-{[4-(2,3-Dihydro-benzo[1,4]dioxin-6-yl)-thiazol-2-yl]-hydrazono}-3-(2-nitro-phenyl)-propionic acid]

binding affinity / potency in FP assay compared with hit compound 1 (eIF4E): significantly less active | GI50 (A549 and HT29 cell lines; [3]): > 24 µM
Structure (SMILES): O=C(O)C(Cc1ccccc1[N+](=O)[O-])=NNc1nc(-c2ccc(N3CCCC3)cc2)cs1 [4i, 3-(2-Nitro-phenyl)-2-{[4-(4-pyrrolidin-1-yl-phenyl)-thiazol-2-yl]-hydrazono}-propionic acid]

Structure (SMILES): CC[C@H]1CN2CCc3cc(OC)c(OC)cc3[C@@H]2C[C@@H]1C[C@H]1NCCc2cc(OC)c(OC)cc21 [emetine, reference compound]
cap-dependent translation (Renilla luciferase) [2]: inhibits translation of both messages equally well | IRES driven / cap-independent translation (firefly luciferase) (IRES driven translation): inhibits translation of both messages equally well

potency in FP assay compared with 4f (eIF4E; relative to 4f): 2 fold | IRES driven / cap-independent translation (firefly luciferase) (IRES driven translation): enhance | GI50 (A549 and HT29 cell lines; [4]): < 10 µM
Structure (SMILES): O=C(O)C(Cc1ccccc1[N+](=O)[O-])=NNc1nc(-c2ccc(C3CCCCC3)cc2)cs1 [4g, 2-{[4-(4-Cyclohexyl-phenyl)-thiazol-2-yl]-hydrazono}-3-(2-nitro-phenyl)-propionic acid]
cap-dependent translation (Renilla luciferase) [2]: Inhibition of cap-dependent translation; also recorded: inhibit dose-dependently; also recorded: more effective

GI50 (A549 and HT29 cell lines; [4]): < 10 µM
Structure (SMILES): O=C(O)C(Cc1ccccc1[N+](=O)[O-])=NNc1nc(-c2ccc(-c3ccccc3)cc2)cs1 [4f, 2-[(4-Biphenyl-4-yl-thiazol-2-yl)-hydrazono]-3-(2-nitro-phenyl)-propionic acid]

IC50 (eIF4E/eIF4G interaction; Table 1 of b280): > 600 µM | IC50 (eIF4E/eIF4G interaction; Table 1 of b347): > 600 µM | GI50 (A549 lung cancer cells; Table 1): > 20 µM | GI50 (A549 lung cancer cells; Table 1, listed as Z-4r): > 20 µM
Structure (SMILES): O=C(O)/C(Cc1ccccc1[N+](=O)[O-])=N/Nc1nc(-c2ccccc2)cs1 [Z-2]

Structure (SMILES): Cn1c[n+]([C@@H]2O[C@H](COP(=O)(O)OP(=O)([O-])O)[C@@H](O)[C@H]2O)c2nc(N)[nH]c(=O)c21 [m7GDP, reference compound]
cap-dependent translation (Renilla luciferase) [2]: specifically inhibits the cap-dependent message

IC50 (eIF4E/eIF4G interaction; Table 1 of b280): 50 µM | IC50 (eIF4E/eIF4G interaction; Table 1 of b347): 50 µM | potency compared with its E isomer (eIF4E/eIF4G interaction; eIF4E/4G assay): two-fold more potent | potency compared with the initial hit (eIF4E/eIF4G interaction; eIF4E/4G assay): one order of magnitude more potent | GI50 (A549 lung cancer cells; Homo sapiens, A549, Table 1 of b280): 1 µM | GI50 (A549 lung cancer cells; Homo sapiens, A549, Table 1 of b347): 1 µM
Structure (SMILES): O=C(O)/C(Cc1ccccc1)=N/Nc1nc(-c2ccccc2)c(-c2ccccc2)s1 [Z-10, 2-[(4,5-Diphenyl-thiazol-2-yl)-hydrazono]-3-phenyl-propionic acid]

IC50 (eIF4E/eIF4G interaction; Table 1 of b280): 90 µM | IC50 (eIF4E/eIF4G interaction; Table 1 of b347): 100 µM and 88 µM | GI50 (A549 lung cancer cells; Table 1): 1.5 µM | GI50 (A549 lung cancer cells; Table 1, listed as E-4o): 1.5 µM
Structure (SMILES): O=C(O)/C(Cc1ccccc1)=N/Nc1nc(-c2ccccc2)c(-c2ccccc2)s1 [E-10, 2-[(4,5-Diphenyl-thiazol-2-yl)-hydrazono]-3-phenyl-propionic acid]
